The record followed here is ChEMBL document CHEMBL4219086, “Development of benzoxazole deoxybenzoin oxime and acyloxylamine derivatives targeting innate immune sensors and xanthine oxidase for treatment of gout” (Bioorg Med Chem, 2018).

The target in experiment [1] is Toll-like receptor 4 (Homo sapiens, UniProt O00206). In words: Inhibition of human TLR4 signaling expressed in HEK-Blue cells co-expressing MD2/CD14 assessed as reduction in LPS-induced NF-kappaB activation-mediated SEAP production preincubated for 2 hrs followed by LPS stimulation for 20 hrs by colorimetric assay. Type of experiment: cell-based.
Experiment [2] deals with NACHT, LRR and PYD domains-containing protein 3 (Homo sapiens, UniProt Q96P20). Kind of experiment: Inhibition of NLRP3 inflammasome in human THP1 cells assessed as reduction in MSU-induced IL-1beta production preincubated for 1 hr followed by MSU stimulation measured after 6 hrs. Format: cell-based.
Experiment [3] deals with Xanthine dehydrogenase/oxidase (Homo sapiens, UniProt P47989). Kind of experiment: Inhibition of Xanthine oxidase (unknown origin) using xanthine as substrate preincubated for 1 to 5 mins followed by substrate addition.
The subject of experiment [4] is Mus musculus. In words: In vivo inhibition of XOD activity in liver of Kunming mouse model of potassium oxonate-induced hyperuricemia at 10 mg/kg, po treated 1 hr post potassium oxonate addition measured after 1 hr relative to control. Format: functional.
Experiment [5] is filed under the species Mus musculus. The note with it: Kunming, 10 mg/kg.
Description: Anti-hyperuricemic effect in Kunming mouse assessed as inhibition of potassium oxonate-induced serum uric acid level at 10 mg/kg, po treated 1 hr post potassium oxonate addition measured after 1 hr by phosphotungstic acid method relative to control
For experiment [6], the system named is Mus musculus. In words: Hypouricemic effect in Kunming mouse assessed as inhibition of hepatic XOD activity at 10 mg/kg, po measured after 1 hr relative to control. Format: organism-based.
The subject of experiment [7] is Rattus norvegicus. In words: Inhibition of MSU-induced MyD88 protein level in synovial homogenate of acute gouty arthritis Sprague-Dawley rat model at 10 mg/kg, po qd pretreated via gavage for 5 days followed by MSU treatment at 1 hr post last dose measured up to 24 hrs by Western blot method. Format: functional, organism-based. Background: Immunoblotting shows a protein as a band on a membrane.

Experiment [8] relates to Rattus norvegicus. Kind of experiment: Inhibition of MSU-induced caspase-1 protein level in synovial homogenate of acute gouty arthritis Sprague-Dawley rat model at 10 mg/kg, po qd pretreated via gavage for 5 days followed by MSU treatment at 1 hr post last dose measured up to 24 hrs by Western blot method. Format: functional, organism-based.
Experiment [9] relates to Rattus norvegicus. Kind of experiment: Inhibition of MSU-induced p65 NFkappaB protein level in synovial homogenate of acute gouty arthritis Sprague-Dawley rat model at 10 mg/kg, po qd pretreated via gavage for 5 days followed by MSU treatment at 1 hr post last dose measured up to 24 hrs by Western blot method. Type of experiment: functional, organism-based.
For experiment [10], the system named is Rattus norvegicus. Kind of experiment: Inhibition of MSU-induced IL-1beta level in synovial homogenate of acute gouty arthritis Sprague-Dawley rat model at 10 mg/kg, po qd pretreated via gavage for 5 days followed by MSU treatment at 1 hr post last dose measured up to 24 hrs by ELISA. Type of experiment: functional, organism-based.
Experiment [11] deals with Rattus norvegicus. Kind of experiment: Inhibition of MSU-induced TNFalpha level in serum of acute gouty arthritis Sprague-Dawley rat model at 10 mg/kg, po qd pretreated via gavage for 5 days followed by MSU treatment at 1 hr post last dose measured up to 24 hrs by ELISA. Type of experiment: functional, organism-based. Background: In an ELISA, binding on a coated surface is turned into a signal by an enzyme label.

Experiment [12] deals with Rattus norvegicus. Kind of experiment: Antiarthritic activity in MSU-induced acute gouty arthritis Sprague-Dawley rat model assessed as reduction in ankle swelling by measuring perimeter of ankle at 10 mg/kg, po qd pretreated via gavage for 5 days followed by MSU treatment at 1 hr post last dose measured after 8 hrs (reference value: 3.27 +/- 0.56 cm). Format: functional.

Experiment [13] relates to Rattus norvegicus. In words: Antiarthritic activity in MSU-induced acute gouty arthritis Sprague-Dawley rat model assessed as reduction in ankle swelling by measuring perimeter of ankle at 10 mg/kg, po qd pretreated via gavage for 5 days followed by MSU treatment at 1 hr post last dose measured after 12 hrs (reference value: 3.51 +/- 0.52 cm). Format: functional.
Experiment [14] deals with Rattus norvegicus. In words: Antiarthritic activity in MSU-induced acute gouty arthritis Sprague-Dawley rat model assessed as reduction in ankle swelling by measuring perimeter of ankle at 10 mg/kg, po qd pretreated via gavage for 5 days followed by MSU treatment at 1 hr post last dose measured after 4 hrs (reference value: 3.18 +/- 0.64 cm). Format: functional.
Experiment [15] concerns Rattus norvegicus. In words: Antiarthritic activity in MSU-induced acute gouty arthritis Sprague-Dawley rat model assessed as reduction in ankle swelling by measuring perimeter of ankle at 10 mg/kg, po qd pretreated via gavage for 5 days followed by MSU treatment at 1 hr post last dose measured after 2 hrs (reference value: 2.82 +/- 0.75 cm). Format: functional.
Experiment [16] concerns Rattus norvegicus. In words: Antiarthritic activity in MSU-induced acute gouty arthritis Sprague-Dawley rat model assessed as reduction in ankle swelling by measuring perimeter of ankle at 10 mg/kg, po qd pretreated via gavage for 5 days followed by MSU treatment at 1 hr post last dose measured after 24 hrs (reference value: 3.35 +/- 0.5 cm). Format: functional.
In experiment [17] the test system is Rattus norvegicus. In words: Antiarthritic activity in MSU-induced acute gouty arthritis Sprague-Dawley rat model assessed as reduction in ankle swelling by measuring perimeter of ankle at 10 mg/kg, po qd pretreated via gavage for 5 days followed by MSU treatment at 1 hr post last dose measured immediately (reference value: 2.64 +/- 0.81 cm). Format: functional.

Experiment [18] relates to Rattus norvegicus. Kind of experiment: Inhibition of MSU-induced TLR4 protein level in synovial homogenate of acute gouty arthritis Sprague-Dawley rat model at 10 mg/kg, po qd pretreated via gavage for 5 days followed by MSU treatment at 1 hr post last dose measured up to 24 hrs by Western blot method. Type of experiment: functional, organism-based.
Experiment [19] concerns Rattus norvegicus. Kind of experiment: Inhibition of MSU-induced phosphorylated IkappaB protein level in synovial homogenate of acute gouty arthritis Sprague-Dawley rat model at 10 mg/kg, po qd pretreated via gavage for 5 days followed by MSU treatment at 1 hr post last dose measured up to 24 hrs by Western blot method. Format: functional, organism-based.
Experiment [20] concerns Rattus norvegicus. Kind of experiment: Inhibition of MSU-induced NLRP3 protein level in synovial homogenate of acute gouty arthritis Sprague-Dawley rat model at 10 mg/kg, po qd pretreated via gavage for 5 days followed by MSU treatment at 1 hr post last dose measured up to 24 hrs by Western blot method. Format: functional, organism-based.
Experiment [21] concerns Rattus norvegicus. Kind of experiment: Inhibition of MSU-induced IL-1beta level in serum of acute gouty arthritis Sprague-Dawley rat model at 10 mg/kg, po qd pretreated via gavage for 5 days followed by MSU treatment at 1 hr post last dose measured up to 24 hrs by ELISA. Type of experiment: functional, organism-based.
Experiment [22] deals with Rattus norvegicus. In words: Inhibition of MSU-induced TNFalpha level in synovial homogenate of acute gouty arthritis Sprague-Dawley rat model at 10 mg/kg, po qd pretreated via gavage for 5 days followed by MSU treatment at 1 hr post last dose measured up to 24 hrs by ELISA. Format: functional, organism-based.
Experiment [23] concerns Rattus norvegicus. Kind of experiment: Inhibition of MSU-induced ASC protein level in synovial homogenate of acute gouty arthritis Sprague-Dawley rat model at 10 mg/kg, po qd pretreated via gavage for 5 days followed by MSU treatment at 1 hr post last dose measured up to 24 hrs by Western blot method. Type of experiment: functional, organism-based.

Calls of active or inactive are those of the source. The rule behind the calls is not given here.

NACHT, LRR and PYD domains-containing protein 3, sequence (Q96P20 whole entry, the tested form may be a part): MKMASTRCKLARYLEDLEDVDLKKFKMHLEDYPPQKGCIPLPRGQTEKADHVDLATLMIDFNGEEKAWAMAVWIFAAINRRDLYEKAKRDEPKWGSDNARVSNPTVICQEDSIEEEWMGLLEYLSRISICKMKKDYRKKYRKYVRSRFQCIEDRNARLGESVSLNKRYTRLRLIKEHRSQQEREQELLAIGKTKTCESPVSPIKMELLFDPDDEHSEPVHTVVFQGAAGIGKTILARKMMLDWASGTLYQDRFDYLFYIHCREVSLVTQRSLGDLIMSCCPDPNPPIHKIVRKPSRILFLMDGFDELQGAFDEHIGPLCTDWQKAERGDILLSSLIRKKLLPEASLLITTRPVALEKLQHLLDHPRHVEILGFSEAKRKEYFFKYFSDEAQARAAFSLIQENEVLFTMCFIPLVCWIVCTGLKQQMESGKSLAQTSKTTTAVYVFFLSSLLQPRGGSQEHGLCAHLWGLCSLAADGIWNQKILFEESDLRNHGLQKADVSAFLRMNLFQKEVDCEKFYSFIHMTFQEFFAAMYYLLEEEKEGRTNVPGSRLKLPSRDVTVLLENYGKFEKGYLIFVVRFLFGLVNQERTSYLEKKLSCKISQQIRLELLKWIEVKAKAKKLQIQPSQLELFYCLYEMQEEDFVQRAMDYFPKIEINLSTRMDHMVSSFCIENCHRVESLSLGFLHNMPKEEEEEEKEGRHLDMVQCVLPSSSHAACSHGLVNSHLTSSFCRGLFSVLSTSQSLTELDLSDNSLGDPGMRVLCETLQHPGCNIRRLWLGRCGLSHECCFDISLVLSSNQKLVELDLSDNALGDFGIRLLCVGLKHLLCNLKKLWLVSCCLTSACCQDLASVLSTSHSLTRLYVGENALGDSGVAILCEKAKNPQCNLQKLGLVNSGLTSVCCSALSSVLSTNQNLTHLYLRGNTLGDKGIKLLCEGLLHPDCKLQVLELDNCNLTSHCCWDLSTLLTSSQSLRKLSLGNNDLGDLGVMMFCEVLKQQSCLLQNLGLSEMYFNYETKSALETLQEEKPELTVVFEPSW
Toll-like receptor 4, sequence (O00206 whole entry, the tested form may be a part): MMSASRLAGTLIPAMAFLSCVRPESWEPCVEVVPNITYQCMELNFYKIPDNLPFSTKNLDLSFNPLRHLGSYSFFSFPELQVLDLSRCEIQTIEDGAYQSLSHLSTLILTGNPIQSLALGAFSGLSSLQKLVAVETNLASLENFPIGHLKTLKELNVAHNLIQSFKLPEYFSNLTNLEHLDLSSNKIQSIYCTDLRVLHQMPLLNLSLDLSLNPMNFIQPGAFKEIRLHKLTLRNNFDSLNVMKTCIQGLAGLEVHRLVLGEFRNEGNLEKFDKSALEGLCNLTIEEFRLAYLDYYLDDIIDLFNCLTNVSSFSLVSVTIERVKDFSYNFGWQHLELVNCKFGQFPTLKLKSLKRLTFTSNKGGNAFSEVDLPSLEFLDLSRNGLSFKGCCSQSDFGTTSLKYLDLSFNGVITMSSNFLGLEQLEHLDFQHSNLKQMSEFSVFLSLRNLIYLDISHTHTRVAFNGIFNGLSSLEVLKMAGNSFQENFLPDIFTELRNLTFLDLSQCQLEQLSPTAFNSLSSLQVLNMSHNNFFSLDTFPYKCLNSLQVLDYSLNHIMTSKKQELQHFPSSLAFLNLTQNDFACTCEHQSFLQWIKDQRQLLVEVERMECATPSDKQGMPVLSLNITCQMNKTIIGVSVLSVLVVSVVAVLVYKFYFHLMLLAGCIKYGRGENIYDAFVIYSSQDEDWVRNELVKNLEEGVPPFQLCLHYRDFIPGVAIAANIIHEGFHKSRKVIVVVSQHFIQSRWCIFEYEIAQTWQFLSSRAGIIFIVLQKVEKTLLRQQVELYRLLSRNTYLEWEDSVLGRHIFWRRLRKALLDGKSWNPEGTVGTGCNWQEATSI
Xanthine dehydrogenase/oxidase, sequence (P47989 whole entry): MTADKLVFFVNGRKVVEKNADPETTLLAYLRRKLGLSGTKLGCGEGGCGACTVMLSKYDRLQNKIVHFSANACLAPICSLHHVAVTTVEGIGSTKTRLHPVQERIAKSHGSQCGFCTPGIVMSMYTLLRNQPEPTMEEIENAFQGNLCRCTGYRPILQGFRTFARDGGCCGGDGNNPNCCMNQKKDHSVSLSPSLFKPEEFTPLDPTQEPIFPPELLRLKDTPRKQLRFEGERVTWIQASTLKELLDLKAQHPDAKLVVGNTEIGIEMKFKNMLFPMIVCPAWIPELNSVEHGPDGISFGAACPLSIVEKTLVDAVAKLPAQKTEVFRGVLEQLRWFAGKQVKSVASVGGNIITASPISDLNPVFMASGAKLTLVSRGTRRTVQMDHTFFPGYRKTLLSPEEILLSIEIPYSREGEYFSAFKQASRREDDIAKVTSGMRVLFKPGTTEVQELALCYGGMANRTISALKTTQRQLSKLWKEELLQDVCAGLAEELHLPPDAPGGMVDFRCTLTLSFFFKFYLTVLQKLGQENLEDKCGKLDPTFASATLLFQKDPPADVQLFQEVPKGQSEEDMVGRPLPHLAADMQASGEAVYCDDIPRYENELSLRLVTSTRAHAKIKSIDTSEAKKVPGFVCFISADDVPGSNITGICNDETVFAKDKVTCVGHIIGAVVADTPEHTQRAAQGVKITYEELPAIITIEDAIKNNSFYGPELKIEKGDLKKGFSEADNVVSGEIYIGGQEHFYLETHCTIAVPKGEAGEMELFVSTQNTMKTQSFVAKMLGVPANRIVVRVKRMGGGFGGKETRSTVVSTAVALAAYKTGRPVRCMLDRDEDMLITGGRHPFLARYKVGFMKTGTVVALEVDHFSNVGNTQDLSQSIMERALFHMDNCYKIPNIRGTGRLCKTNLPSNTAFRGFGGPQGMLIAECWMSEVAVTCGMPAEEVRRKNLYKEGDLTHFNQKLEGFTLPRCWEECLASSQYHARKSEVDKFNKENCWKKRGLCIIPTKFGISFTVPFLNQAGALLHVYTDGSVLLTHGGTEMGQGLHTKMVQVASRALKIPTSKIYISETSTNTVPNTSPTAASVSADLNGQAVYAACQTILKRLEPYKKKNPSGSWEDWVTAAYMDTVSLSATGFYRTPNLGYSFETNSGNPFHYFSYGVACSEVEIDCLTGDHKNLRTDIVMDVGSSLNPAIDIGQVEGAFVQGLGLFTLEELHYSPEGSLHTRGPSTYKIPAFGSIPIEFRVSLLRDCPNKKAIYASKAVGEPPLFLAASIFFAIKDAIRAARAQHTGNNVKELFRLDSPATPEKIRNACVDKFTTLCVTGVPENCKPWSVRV

In the case of `COc1ccccc1C(=O)O/N=C(\C)c1nc2ccccc2o1`, the figures for the IC50 in experiment [1], in [2] and in experiment [3] were 25.9 µM, 39.5 µM and 15.2 µM, respectively.

Turning to `O/N=C(\Cc1ccccc1)c1nc2ccc(Br)cc2o1`, the IC50 in [3] was more than 100 µM.

For the compound `Cc1ccc2nc(/C(Cc3ccccc3)=N/O)oc2c1`, in experiment [1], the IC50 stood at 19.3 µM.

For `Cc1ccc2oc(/C(Cc3ccc(F)cc3)=N/O)nc2c1`, the IC50 in experiment [1] is 45.7 µM.

For the compound `Oc1ncnc2[nH]ncc12` [ALLOPURINOL], the inhibition in vivo at 10 mg/kg in experiment [4] is 47.1%. Further, the inhibition entry in [5] was “Active”. The inhibition at 10 mg/kg in [6] turned out to be 27.9%.

With `COc1ccc(C/C(=N\O)c2nc3ccc(Cl)cc3o2)cc1`, the IC50 in [1] came to 5.42 µM; in [2], 5.72 µM; in experiment [3], 17.8 µM.

As for `CCOC(=O)C1=CCCC[C@H]1S(=O)(=O)Nc1ccc(F)cc1Cl` [RESATORVID], the IC50 in experiment [1] turned out to be 0.68 µM.

`O/N=C(\Cc1ccc(F)cc1)c1nc2ccc(Cl)cc2o1` displayed an IC50 in experiment [3] of more than 100 µM.

Consider `COc1cc2c(c(OC)c1OC)-c1ccc(OC)c(=O)cc1[C@@H](NC(C)=O)CC2` [COLCHICINE], for which the inhibition result in [7], in experiment [8], in [9], in [10], in experiment [11] and in [18] was “Active” throughout. The inhibition entry in [19], in experiment [20], in experiment [21], in [22] and in experiment [23] was “Active” each time. Further, the Activity in experiment [12] is listed as 2.77 cm; in [13], 2.8 cm; in experiment [14], 2.81 cm; in experiment [15] it was 2.73 cm; in [16], 2.79 cm; in experiment [17], 2.49 cm.

In the case of `O=C(/C=C/c1ccc(O)cc1)c1ccc(O)cc1O` [ISOLIQUIRITIGENIN], in [2], the IC50 was 1.54 µM.

For the compound `O/N=C(\Cc1ccc(F)cc1)c1nc2cc(Cl)ccc2o1`, in experiment [3], the IC50 is more than 100 µM.

As to `O/N=C(\Cc1ccc(F)cc1)c1nc2ccc(Br)cc2o1`, the IC50 in experiment [3] was more than 100 µM.

The term IC50 denotes the concentration that inhibits the measured activity by half. By inhibition in vivo is commonly meant how much of the control response was suppressed. By inhibition is commonly meant the change of the read-out against control, counted positive when it falls.
